Results on 13 molecules are retold here after publication PMC6085107 (Pain, 2018).

As usually defined, the IC50 is the midpoint of a concentration-inhibition curve. Low readings indicate inhibition by little substance, high ones a need for much substance.

“Also recorded” adds a separate entry of the source.

Series [1] concerns the target His-nNOS1-299 and GST-NOS1AP400-506 (Homo sapiens, UniProt P29475). The experiment in a line: AlphaScreen nNOS-NOS1AP binding disruption. Conditions: 1X PBS, BSA (1mg/mL), Tween-20 (0.1%), 0–200 μM, n = 4–9. A general note: Alpha assays give light when donor and acceptor beads are brought close together.
Series [2] deals with NMDA-induced cell death. Conditions: ref [29]; cited from earlier work.
The subject of series [3] is p38 MAPK. Conditions: rats, cited from earlier work; for p38 MAPK activation in microglia: 5 minutes post treatment, returned to basal levels after 20 minutes, ref [46].
Series [4] relates to mechanical paw withdrawal thresholds, C57BL/6J mice. The experiment in a line: Paclitaxel-induced mechanical allodynia. The class given is in vivo. Conditions: paclitaxel 4 mg/kg i.p. on day 0, 2, 4, 6; starting on day 7 and ongoing on day 15; p < 0.0001.
For series [5], the system named is cold response times, C57BL/6J mice. The series can be described thus: Paclitaxel-induced cold allodynia. The class given is in vivo.
Series [6] relates to p53 phosphorylated at Ser15. The experiment in a line: Western blot pSer15-p53 in lumbar spinal cord. The class given is in vivo, mouse. The following applies: paclitaxel 4 mg/kg i.p. on day 0, 2, 4, 6, n = 5, p = 0.002. On the technique in general: Immunoblotting shows a protein as a band on a membrane.
Series [7] deals with ERK1/2. The series can be described thus: Western blot pERK1/2 in lumbar spinal cord. The class given is in vivo, mouse. The following applies: n = 5.
In series [8] the test system is paclitaxel-induced neuropathic pain. The following applies: administered acutely; ref [27]; cited from earlier work.
The subject of series [9] is mechanical paw withdrawal thresholds, C57BL/6J mice. The experiment in a line: PSNL-induced mechanical allodynia. The format is in vivo.
Series [10] concerns cold response times, C57BL/6J mice. The experiment in a line: PSNL-induced cold allodynia. The format is in vivo.
The subject of series [11] is primary cortical neurons. The series can be described thus: Glutamate/glycine-induced cell death in primary cortical neurons. The following applies: MK-801 20 μM; n = 3–4; p < 0.01 for each comparison. The format is cell-based, Sprague-Dawley rat.
The test system of series [12] is NR1 and NR2B; astrocytes and microglia in the lumbar spinal cord. Conditions: direct intrathecal injections; ref [2]; cited from earlier work.
The subject of series [13] is nNOS. The following applies: ref [6], [29]; cited from earlier work.
The target of series [14] is His-nNOS_(1-299) (UniProt P29476-1 1-299). The series can be described thus: AlphaScreen or HTRF.
Sequence of His-nNOS_(1-299) (P29476 1-299): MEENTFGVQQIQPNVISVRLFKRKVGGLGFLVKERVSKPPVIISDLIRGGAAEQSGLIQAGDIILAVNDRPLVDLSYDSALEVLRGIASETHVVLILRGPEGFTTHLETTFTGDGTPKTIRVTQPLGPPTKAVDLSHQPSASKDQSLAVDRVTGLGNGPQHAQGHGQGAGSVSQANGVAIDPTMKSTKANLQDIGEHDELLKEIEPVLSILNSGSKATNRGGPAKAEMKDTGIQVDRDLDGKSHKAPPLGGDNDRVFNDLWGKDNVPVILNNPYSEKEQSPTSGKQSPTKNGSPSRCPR

Sequence of His-nNOS1-299 and GST-NOS1AP400-506 (P29475 1-299): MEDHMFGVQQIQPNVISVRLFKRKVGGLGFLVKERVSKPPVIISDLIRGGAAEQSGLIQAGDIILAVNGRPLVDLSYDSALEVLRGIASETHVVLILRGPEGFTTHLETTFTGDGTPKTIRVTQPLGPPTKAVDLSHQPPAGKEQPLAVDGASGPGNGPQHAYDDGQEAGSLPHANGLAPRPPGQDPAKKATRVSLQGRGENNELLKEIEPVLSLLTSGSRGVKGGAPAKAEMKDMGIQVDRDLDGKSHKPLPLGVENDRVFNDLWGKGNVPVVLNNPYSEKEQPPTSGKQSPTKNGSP

For the molecule GRKKRRQRRRGESVYAGQW [TAT-cp4GESV], the “disruption of nNOS-NOS1AP binding” value in series [1] is given as “Neither TAT-cp4GESV nor TAT-GESVΔ1 disrupted the interactions; also recorded: Neither TAT-GESVΔ1 nor TAT-cp4GESV disrupted the binding”. Besides, the NMDA-induced cell death entry in [2] is recorded as “did not disrupt NMDA activation-induced cell death”.
Turning to substance P, the “p38 MAPK activation in microglia” value in series [3] is “induced p38 MAPK activation in microglia 5 minutes post treatment”.
Turning to `CC(=O)O[C@H]1C(=O)[C@@]2(C)[C@H]([C@H](OC(=O)c3ccccc3)[C@]3(O)C[C@H](OC(=O)[C@H](O)[C@@H](NC(=O)c4ccccc4)c4ccccc4)C(C)=C1C3(C)C)[C@]1(OC(C)=O)CO[C@@H]1C[C@@H]2O` [Paclitaxel], the “mechanical paw withdrawal thresholds after paclitaxel vs vehicle” value in [4] is “lowered mechanical paw withdrawal thresholds”. Also, the “cold response times after paclitaxel vs vehicle” value in series [5] (paclitaxel 4 mg/kg i.p. on day 0, 2, 4, 6, starting on day 7 and ongoing on day 15, p < 0.0001) is given as “increased cold response times”. For the same molecule, the “pSer15-p53 levels, paclitaxel-treated vs vehicle-treated mice” value in series [6] is recorded as “increased lumbar spinal cord levels of pSer15-p53”. Moreover, the “pERK1/2 levels, paclitaxel-treated vs cremophor-vehicle treated mice” value in series [7] (paclitaxel 4 mg/kg i.p. on day 0, 2, 4, 6, lumbar spinal cord, saline i.t., p < 0.0001) is given as “elevated pERK1/2 levels”.
Regarding `O=C(O)c1ccc(NCc2cc(Cl)cc(Cl)c2O)cc1O` [ZL006], the “suppression of paclitaxel-induced neuropathic pain” value in series [8] is “efficacious in suppressing paclitaxel-induced neuropathic pain”.
Consider formalin, for which the “p38 MAPK activation in microglia” value in [3] is on record as “induced p38 MAPK activation in microglia 5 minutes post treatment”.
Consider `CN[C@H](CC(=O)O)C(=O)O` [NMDA, N-methyl-D-aspartate], for which, in series [3] (administration directly to the spinal cord, ref [45]), the “spinal p38 MAPK activation” value is “induced p38 MAPK activation”.
For the molecule `Oc1c(Cl)cc(Cl)cc1CNc1ccc2n[nH]nc2c1` [IC87201], the “NMDAR-evoked nNOS-NOS1AP association/p38 MAPK-dependent cell death” value in series [2] is recorded as “blocked”. Further, the “suppression of paclitaxel-induced neuropathic pain” value in [8] is reported as “efficacious in suppressing paclitaxel-induced neuropathic pain”.
As to GRKKRRQRRRYAGQWGES [TAT-GESVΔ1], in series [1], the “disruption of nNOS-NOS1AP binding” value is reported as “Neither TAT-cp4GESV nor TAT-GESVΔ1 disrupted the interactions; also recorded: Neither TAT-GESVΔ1 nor TAT-cp4GESV disrupted the binding”. The “cold response times vs saline (i.t.) in paclitaxel-treated mice” value in series [5] (10 nmol i.t., n = 6, TAT-GESV p = 0.039, TAT-GESVΔ1 p = 1) is recorded as “did not differ from saline”. Further, the “ipsilateral paw withdrawal thresholds vs saline, PSNL” value in [9] (10 nmol i.t., acute, n = 6–10, TAT-GESV p < 0.05, TAT-GESVΔ1 p = 1) is listed as “did not differ”. The “cold responsiveness, repeated dosing, PSNL” value in series [10] (10 nmol i.t. once daily, 8 consecutive days, n = 5–10, TAT-GESV vs saline p < 0.05, TAT-GESVΔ1 p > 0.25 for each comparison) is listed as “did not reliably alter cold responsiveness relative to saline (i.t.), MK-801 (i.t.) or TAT-GESV (i.t.)”. In series [10] (10 nmol i.t., acute, n = 6–10, TAT-GESV p < 0.01, TAT-GESVΔ1 p = 1), the “ipsilateral cold-response times vs saline, PSNL” value is “did not differ”. In addition, the “contralateral cold responsiveness, PSNL or sham” value in series [10] (acute i.t., p = 0.39 (dose), p = 0.491 (drug), p = 0.882 (interaction)) is “neither TAT-GESV nor TAT-GESVΔ1 altered mechanical or cold responsiveness in the paw contralateral to PSNL or sham surgery”. In series [7] (5 nmol i.t., 20 min post injection, p > 0.4), the “pERK1/2 elevation vs saline (i.t.), paclitaxel-treated mice” value is recorded as “neither TAT-GESV nor TAT-GESVΔ1 (5 nmol, i.t.) altered pERK1/2 elevation”.
In the case of GRKKRRQRRR [TAT], the “disruption of nNOS-NOS1AP binding” value in series [1] is “did not interfere with the binding between His-nNOS1-299 and GST-NOS1AP400-506”.
For `C[C@]12N[C@H](Cc3ccccc31)c1ccccc12` [MK-801], the “cell death vs all other groups exposed to glutamate/glycine” value in series [11] is “Cell death was lower”. The “sustained mechanical efficacy, day 4–8, repeated dosing, PSNL” value in [9] (MK-801 5 nmol i.t. once daily, p < 0.001 for each comparison) is recorded as “similarly increased mechanical paw withdrawal thresholds relative to saline (i.t.) or TAT-GESVΔ1 (i.t.) with sustained efficacy”. For the same molecule, the “cold sensitivity vs saline, repeated dosing, PSNL” value in [10] (MK-801 5 nmol i.t. once daily, 8 consecutive days, n = 5–10, p = 0.072) is “approached significance”.

B1: CCL-1: chemokines C-C motif ligand 1 (protein, UniProt P22362 24-96, looked up)
C-C motif chemokine 1: KSMQVPFSRCCFSFAEQEIPLRAILCYRNTSSICSNEGLIFKLKRGKEACALDTVGWVQRHRKMLRHCPSKRK
Take B1: the “NR1 and NR2B phosphorylation, glial activation in lumbar spinal cord” value in series [12] is “induced phosphorylation of NR1 and NR2B and activated astrocytes and microglia in the lumbar spinal cord”.

B2: nNOS1-99: nNOS fragment disrupting nNOS-NOS1AP interactions (protein, UniProt P29475 1-99, looked up, fragment)
chain: MEDHMFGVQQIQPNVISVRLFKRKVGGLGFLVKERVSKPPVIISDLIRGGAAEQSGLIQAGDIILAVNGRPLVDLSYDSALEVLRGIASETHVVLILRG
With B2, the “enzymatic activity of nNOS or production of NO” value in series [13] is listed as “does not alter the enzymatic activity of nNOS or the production of NO”.
In turn, GRKKRRQRRRYAGQWGESV [L-TAT-GESV] had an IC50 in [14] of 8.47 µM. This counts as single-digit micromolar.
